Reference: patent US11173195B2, “Immunomodulatory pharmaceutical compositions including a synthetic peptide and transforming growth factor beta” (Enzo Biochem, Inc., priority 2013, dated 2021)
Read-outs that look alike come from different tables or passages of the source.

Assays:
[1] = system: peripheral blood mononuclear cells (PBMCs) from AMD patients; conditions: for immunostimulatory activity on PBMCs: peptide 20 μg/ml
Experimental: (§1) Accordingly, peripheral blood mononuclear cells of AMD patients were tested to determine whether they would manifest the same type of responses to various synthetic peptides as blood cells from uveitis patients did in an earlier study. See deSmet et al. (2001) Investigative Ophthalmology & Visual Science 42(13):3233-38.
(§2) The cell preparation and assay procedures used in these experiments were essentially as described in DeSmet et al. 2001. In brief, mononuclear lymphocytes were separated on isolymph gradient (Gallard-Schlesinger, Carle Place, N.Y.) from heparinized blood shortly after the sample was obtained. Cells were resuspended in RMPI 1640 with HEPES (Gibco, Grand Island, N.Y.), supplemented with glutamine (2 mM), Penicillin (100 U/ml), streptomycin (100 μg/ml), and 10% commercial heat-inactivated human AB serum (Biocell Laboratories, Carson, Calif.). These cells were immediately placed in culture at a density of 5×10^5 cells/well in the presence of a test peptide at a concentration of 20 μg/ml (or no peptide control), in flat-bottomed, 96-well plates (Costar, Cambridge, Mass.). All assays were plated in triplicate. Peptides were tested simultaneously. For control of immune reactivity, purified protein derivative (PPD; Parke-Davis, Morris Plains, N.J.) and purified phytohemagglutinin (PHA; Murex Diagnostics, Dartford, UK) were also tested. For the last 12 hours before harvesting at day 5, each well was pulsed with [3H]thymidine (2 Ci/mmol, 0.5 μCi per 10 μl/well; New England Nuclear, Boston, Mass.).

[2] = system: blood cells from uveitis patients; conditions: previously found (Wildner and Thurau 1994; Thurau et al. 1997); cited from earlier work
[3] = system: PBMCs from control subjects without AMD
Experimental: as §1, §2

[4] = AMD patients with large drusen (late stage)
[5] = early stage AMD patients with small drusen
[6] = patients with wet AMD (advanced AMD with CNV), day 5

## LPLLA NNRER RGIAL [Peptide 29]
[1]; [4]
  immunostimulatory activity on PBMCs: higher average reactivity than Peptide 23
[1]; [5]
  immunostimulatory activity on PBMCs: most reactive

## ALNED LSSWT AADT [Peptide B27PD, reference compound]
[2]
  immunostimulatory in uveitis patients: immunostimulatory
[1]; [4]
  immunostimulatory activity on PBMCs: varying levels of responses
[1]; [6]
  immunostimulatory activity on PBMCs: elicit immunoreactive responses

## FLGEL TSSEV ATEV [PDS-Ag, reference compound]
[2]
  immunostimulatory in uveitis patients: immunostimulatory
[1]; [4]
  immunostimulatory activity on PBMCs: varying levels of responses
[1]; [6]
  immunostimulatory activity on PBMCs: elicit immunoreactive responses

## DTNLA SSTII KEGID [Peptide 31]
[1]; [4]
  immunostimulatory activity on PBMCs: higher average reactivity than Peptide 23
[1]; [5]
  immunostimulatory activity on PBMCs: most reactive

## GEPIPVTVDVTNNTEKTVKK
[3]; healthy individuals
  response from responder T-cells: does not elicit a response
[1]; AMD patients, FIG. 1
  response from responder T-cells: elicits a response

## VTVDVTNNTEKTVKK [Peptide 23]
[3]; control subjects without AMD, peptide 20 μg/ml
  immunostimulatory activity on PBMCs: little if any stimulation
[1]; AMD patients with large drusen, FIG. 3, comparison of the three agents
  frequency of induced immunostimulatory response: more frequently induced an immunostimulatory response than PDS-Ag or B27PD
